Test results as given in USRE50301E1, “Depot systems comprising glatiramer or pharmacologically acceptable salt thereof” (MAPI PHARMA LTD., priority 2010, dated 2025).

Tested on: MOG-induced chronic EAE in C57BL/6 mice
Assay type: in vivo
Source text: The effect of the two formulations on MOG (myelin-oligodendrocyte-glycoprotein)-induced chronic EAE in C57BL/6 mice was examined according to the procedure described below.
Forty (40) female C57BL/6 mice had been randomly grouped into three (3) groups by body weight in this study; each group consisted of ten (10) mice. […] EAE had been induced by injection of emulsion of MOG subcutaneously on the shaved back of the mouse at three sites, followed by an intraperitoneal injection of Bordetella pertussis toxin in PBS on Day 0 and 48 hours post MOG immunization. EAE had been assessed by clinical scoring of the mice once daily from Day 0 to Day 14 post immunization. […] On Day 14, mice had been terminated.
After anesthetization by isoflurane (2-3%, inhalation), EAE had been induced by injecting 100 μL emulsion subcutaneously into the shaved backs of the mice. Bordetella pertussis toxin (200 ng in 200 μL of PBS) had been administered i.p. on the day of immunization (Day 0) and 48 hours thereafter. […]
Body weight of all mice had been recorded daily starting from Day 0 to Day 14. EAE development had been assessed by clinically scoring of the mice once daily from Day 0 to Day 14 post immunization according to a scale of 0-5 (0=normal mouse; 1=limp tail or hind limb weakness; 2=limp tail and hind limb weakness; 3=partial hind limb paralysis; 4=complete hind limb paralysis; and 5=moribund state). […]

**Q.** What does the source list for “L-glutamic acid polymer with L-alanine, L-lysine and L-tyrosine, acetate (salt) [GA]”?
**A.** Maximum score (clinical score scale 0-5, days 0-14, 5 mg GA/mice/day i.m. on day 0 and day 1): 0.5 ± 0.31; Disease duration (days 0-14, 5 mg GA/mice/day i.m. on day 0 and day 1): 0.5 ± 0.31
